In general, pIC50 refers to −log10 of the IC50, conventionally taken in molar units. Higher therefore signals a low IC50. What is called Inhibition is the change of the read-out against control, counted positive when it falls.

The target in experiment [1] is Glutamate NMDA receptor. The experiment can be described thus: Inhibition of [3H]MK-801 binding to NMDA receptor of adult Wistar rat brain cortical membranes. The format is cell membranes, Membrane.
For experiment [2], the species on record is Rattus norvegicus. The experiment can be described thus: Percent inhibition of delayed neural death at concentration of 50 uM induced by glutamate and glycine in neocortical neurons of Wistar rat fetus. The class given is functional.
The species named for experiment [3] is Rattus norvegicus. The experiment can be described thus: Percent inhibition of delayed neural death at concentration of 500 uM induced by glutamate and glycine in neocortical neurons of Wistar rat fetus. The class given is functional.
The target of experiment [4] is Glutamate NMDA receptor. The experiment can be described thus: Inhibition of [3H]MK-801 binding to NMDA receptor of adult Wistar rat brain cortical membranes: Range 50-500. The format is cell membranes, Membrane.

pIC50: −log10 of the molar value. A value given as a limit tells only on which side of the number the result lay.

On to `N[C@H](CC(=O)c1ccccn1)C(=O)O`, for which, on Glutamate NMDA receptor [1], the pIC50 is roughly 3.52. In addition, the Inhibition in the experiment filed under Rattus norvegicus [2] is reported as 18.4%; in the experiment filed under Rattus norvegicus [3], 60.3%.
At Glutamate NMDA receptor [4], `N[C@H](CC(=O)c1cccs1)C(=O)O` showed a pIC50 greater than 3.30.
